These results are taken from patent US20230143775A1, “METHODS OF TREATING CORONAVIRUS INFECTIONS” (EAGLE PHARMACEUTICALS, INC., priority 2020, published 2023).

In data set [1] the test system is SARS-CoV-2. Put plainly: Virus neutralization (VN) assay, scoring SARS-CoV-2 cytopathic effects (CPE) in Vero E6 cells. The data set is classed as cell-based. Conditions: for Day 2 Read (CPE) / Day 4 Read (CPE) / Day 6 Read (CPE): triplicate wells.
Data set [2] has as its system uninfected Vero E6 cells. Conditions: lower dilutions (<50 μM dantrolene), without virus.
[3] abbreviates: 20 μM dantrolene (as […]), […], Vero E6 cells.
The mark [4] stands for this setting: 30 μM dantrolene (as […]), […], Vero E6 cells.
The mark [5] stands for this setting: 40 μM dantrolene (as […]), […], Vero E6 cells.

Values after ≈ are worked out from the molar mass of the structure shown.

Consider `O=C1CN(/N=C/c2ccc(-c3ccc([N+](=O)[O-])cc3)o2)C(O)=N1` [dantrolene], for which the “Day 2 Read (CPE)” value in data set [1] (setting [3]), in data set [1] (setting [4]) and in data set [1] (setting [5]) was 3/3 wells had No CPE throughout. In addition, the “Day 4 Read (CPE)” value in data set [1] (setting [3]), in data set [1] (setting [4]) and in data set [1] (setting [5]) was 3/3 wells had No CPE each time. Moreover, the “Day 6 Read (CPE)” value in data set [1] (setting [3]) is recorded as 3/3 wells had No CPE; in data set [1] (setting [4]), 3/3 wells had No CPE; in data set [1] (setting [5]), 3/3 wells had No CPE; in data set [1] (100 μM dantrolene (as […]), […], Vero E6 cells), 3/3 wells had >90%. Besides, the CPE result in data set [1] (20-40 μM of dantrolene, […]) was “no CPE was observed”. In addition, in data set [1] (20 and 40 μM dantrolene, all timepoints), the “cytopathic effects (indicating virus growth)” value is “No cytopathic effects”. Besides, in data set [1] (Severe acute respiratory syndrome coronavirus 2, no CPE across all time points (Days 2, 4, 6), Vero E6 cells, read-out: minimum inhibitory concentration), the MIC worked out at 20 µM (≈ 6.29 µg/mL). Also, the anti-viral activity entry in data set [1] (lower concentrations of 10 and 5 μM) is recorded as “showed anti-viral activity”. In addition, in data set [2], the “cell viability of uninfected Vero E6 cells” value is on record as “good cell viability”.
